Patent EP4725957A1, “GROUP OF CYCLIC ALKALINE LIPOPEPTIDE COMPOUNDS, AND PREPARATION METHOD THEREFOR AND USE THEREOF” (Institute of Medicinal Biotechnology, Chinese Academy of …, priority 2023, dated 2024)
Values after ≈ are worked out from the molar mass of the structure shown. Bridge positions count the residues as written; N and C are the ends. Square brackets hold non-standard residues; d marks the D form. Peptide text beside a SMILES is read from it. * marks the point of attachment. Heptanoyl(6-Me) = CC(C)CCCCC(=O)*; dOrn = NCCC[C@@H](N)C(=O)O; Nonanoyl = CCCCCCCCC(=O)*; X1 = CC[C@H](C)CCCCC(=O)*; dDab = NCC[C@@H](N)C(=O)O; Heptanoyl = CCCCCCC(=O)*; Octanoyl = CCCCCCCC(=O)*; Orn = NCCC[C@H](N)C(=O)O; dDap = NC[C@@H](N)C(=O)O; Dab = NCC[C@H](N)C(=O)O; Dap = NC[C@H](N)C(=O)O

Columns and labels:
Format in all cases: cell-based
[1] = test system: Acinetobacter baumannii ABA19-1; conditions: ABA19-1
Procedure: (§1) The minimal inhibitory concentration (MIC) was determined by the broth microdilution method according to the recommended procedures of the Clinical and Laboratory Standards Institute (CLSI).
(§2) An appropriate amount of the cyclic lipopeptide compounds prepared in Examples 1-120 and the reference standards were weighed and dissolved in sterile pure water. An appropriate volume of the mother solution was subjected to ten-fold dilution with sterile Mueller-Hinton (MH) broth to a concentration of 0.256 mg/mL. Half of the drug solution was aliquoted into 96-well reagent reservoirs, while the other half was subjected to two-fold serial dilution with sterile MH broth before being transferred into deep-well reagent reservoirs. The above steps were repeated, so that the drug concentrations in the reagent reservoirs were adjusted to 128, 64, 32, 16, 8, 4, 2, 1, 0.5, 0.25, 0.125 and 0.06 mg/L in sequence, and all solutions were prepared and used immediately. Several colonies were picked from agar plates cultured for 18-24 h and directly suspended in sterile normal saline, and the concentration of the bacterial suspension was adjusted to 0.5 McFarland units. The calibrated bacterial suspension was diluted with MH broth to a concentration of (4-8) × 10^5 colony-forming units per milliliter (CFU/mL) and prepared and used immediately. A volume of 100 µL of the aforementioned compounds of the present disclosure (e.g., the compounds prepared in the examples) and reference solutions at different concentrations was separately pipetted into wells 1 to 12 of sterile 96-well polystyrene plates, and an additional 100 µL of the aforementioned inoculum was added to each well. The final concentrations of the samples in the wells were adjusted to 64, 32, 16, 8, 4, 2, 1, 0.5, 0.25, 0.125, 0.06 and 0.03 mg/L, respectively, and the final concentration of the inoculum in each well was (2-4) × 10^5 CFU/mL. Additional growth control wells were set up, each containing 100 µL of the inoculum and 100 µL of sterile MH broth. The test substances and inocula in all wells were mixed thoroughly and then sealed. The inoculated 96-well plates were incubated in an incubator at 35-37°C for 16-20 h.
(§3) The strains used for the antibacterial activity assay were obtained from the American Type Culture Collection (ATCC) and clinical isolates.
(§4) The strains employed for the antibacterial activity assay included Escherichia coli ATCC BAA-2523, ATCC BAA-2340 (KPC), Klebsiella pneumoniae KPN+19-15, ATCC BAA-1705 (KPC), Pseudomonas aeruginosa PAE19-3, ATCC 27853, Acinetobacter baumannii ABA19-1, and NCTC 13304 (OXA-27).

[2] = test system: Acinetobacter baumannii NCTC 13304 (OXA-27); conditions: NCTC 13304
Procedure: as §1, §2, §3, §4

[3] = test system: Escherichia coli ATCC BAA-2340 (KPC); conditions: ATCC BAA-2340
Procedure: as §1, §2, §3, §4

[4] = test system: Escherichia coli ATCC BAA-2523; conditions: ATCC BAA-2523
Procedure: as §1, §2, §3, §4

[5] = test system: Klebsiella pneumoniae ATCC BAA-1705 (KPC); conditions: ATCC BAA-1705
Procedure: as §1, §2, §3, §4

[6] = test system: Klebsiella pneumoniae KPN+19-15; conditions: KPN+19-15
Procedure: as §1, §2, §3, §4

[7] = test system: Pseudomonas aeruginosa ATCC 27853; conditions: ATCC 27853
Procedure: as §1, §2, §3, §4

[8] = test system: Pseudomonas aeruginosa PAE19-3; conditions: PAE19-3
Procedure: as §1, §2, §3, §4

[9] = Nephrotoxicity assay: in vitro cytotoxicity of HK-2 cells by CCK-8 assay; conditions: human, HK-2 cells (human renal), 72 h incubation with drug-containing medium
Procedure: In vitro cytotoxicity detection of HK-2 cells was performed by the CCK-8 assay.
The culture medium for human renal HK-2 cells was a complete RPMI-1640 medium (Invitrogen) supplemented with 10% fetal bovine serum (FBS, Gibco). The cryopreservation solution was composed of 90% FBS and 10% dimethyl sulfoxide (DMSO), and the cells were preserved long-term in liquid nitrogen. Cells were cultured in a sterile incubator with a humidified atmosphere containing 5% CO2 at 37°C. When the cell density reached 70%-80%, cell digestion and subculture were conducted. The cyclic lipopeptide compounds prepared in Examples 1-120 were weighed and dissolved in sterile water to prepare a mother solution with a concentration of 1 mg/mL. Drug-containing culture media were then formulated, with the final concentrations set as 500, 250, 200, 100, 50, 25, and 12.5 µg/mL, respectively. Cells were adjusted to a density of 5 × 10^4 cells/mL and seeded into 96-well plates, with 100 µL of cell suspension added to each well. After stable incubation for 24 h, the original medium was replaced with the prepared drug-containing medium, and the plates were incubated in the incubator for an additional 72 h. The medium was gently aspirated, and 100 µL of blank medium containing 10% CCK-8 was added to each well. After incubation in the incubator for 3 h, the optical density (OD) values at 450 nm were measured using a BIOTEK microplate reader. The experiment was repeated three times. For each replicate, polymyxin B was set as the positive drug, and a drug-free blank group was established as the control. The cell viability (%) was calculated by the formula: Cell viability (%) = [(OD of drug-treated group - OD of zero-setting) / (OD of drug-free group - OD of zero-setting)] × 100%. The half-maximal inhibitory concentration (IC50) values were calculated through logarithmic regression analysis.
The cells used for the nephrotoxicity assay were obtained from the ATCC ( American Type Culture Collection). The Cell Counting Kit-8 (CCK-8) used in the assay was supplied by Beyotime Biotechnology Co., Ltd.

Structure (SMILES)	MIC [1]	MIC [2]	MIC [3]	MIC [4]	MIC [5]	MIC [6]	MIC [7]	MIC [8]	IC50 at 72 h [9]
CCCCCCCCC(=O)N[C@@H](CCN)C(=O)N[C@H](C(=O)N[C@H](CN)C(=O)N[C@H]1CCNC(=O)[C@H]([C@@H](C)O)NC(=O)[C@H](CCN)NC(=O)[C@H](CCN)NC(=O)[C@H](CC(C)C)NC(=O)[C@@H](Cc2ccccc2)NC(=O)[C@H](CCN)NC1=O)[C@@H](C)O [Compound 35, Nonanoyl-Dab-Thr-D-Dap-ring(4-10)[Dab-Dab-D-Phe-Leu-Dab-Dab-Thr]] (Nonanoyl-[Dab]T[dDap][Dab][Dab][dF]L[Dab][Dab]T; lactam 4-C)	0.06 mg/L (≈ 0.0504 µM)	0.06 mg/L (≈ 0.0504 µM)	0.06 mg/L (≈ 0.0504 µM)	0.06 mg/L (≈ 0.0504 µM)	0.06 mg/L (≈ 0.0504 µM)	0.06 mg/L (≈ 0.0504 µM)	0.06 mg/L (≈ 0.0504 µM)	0.5 mg/L (≈ 0.42 µM)	138 ± 8.3 mg/L (≈ 116 µM)
CC(C)CCCCC(=O)N[C@@H](CCN)C(=O)N[C@H](C(=O)N[C@H](CO)C(=O)N[C@H]1CCNC(=O)[C@H]([C@@H](C)O)NC(=O)[C@H](CCN)NC(=O)[C@H](CCN)NC(=O)[C@H]([C@@H](C)O)NC(=O)[C@@H](Cc2ccccc2)NC(=O)[C@H](CCCN)NC1=O)[C@@H](C)O [Compound 67, 6-methylheptanoyl-Dab-Thr-D-Ser-ring(4-10)[Dab-Orn-D-Phe-Thr-Dab-Dab-Thr]] ({Heptanoyl(6-Me)}-[Dab]T[dS][Dab][Orn][dF]T[Dab][Dab]T; lactam 4-C)	0.25 mg/L (≈ 0.212 µM)	0.25 mg/L (≈ 0.212 µM)	0.25 mg/L (≈ 0.212 µM)	0.25 mg/L (≈ 0.212 µM)	0.25 mg/L (≈ 0.212 µM)	0.5 mg/L (≈ 0.424 µM)	64 mg/L (≈ 54.3 µM)	4 mg/L (≈ 3.39 µM)	> 500 mg/L
CCCCCCCCC(=O)N[C@@H](CCN)C(=O)N[C@H](C(=O)N[C@H](CCCN)C(=O)N[C@H]1CCNC(=O)[C@H]([C@@H](C)O)NC(=O)[C@H](CCN)NC(=O)[C@H](CCN)NC(=O)[C@H](CC(C)C)NC(=O)[C@@H](Cc2ccccc2)NC(=O)[C@H](CCN)NC1=O)[C@@H](C)O [Compound 45, Nonanoyl-Dab-Thr-D-Orn-ring(4-10)[Dab-Dab-D-Phe-Leu-Dab-Dab-Thr]] (Nonanoyl-[Dab]T[dOrn][Dab][Dab][dF]L[Dab][Dab]T; lactam 4-C)	0.125 mg/L (≈ 0.103 µM)	0.06 mg/L (≈ 0.0493 µM)	0.06 mg/L (≈ 0.0493 µM)	0.06 mg/L (≈ 0.0493 µM)	0.06 mg/L (≈ 0.0493 µM)	0.125 mg/L (≈ 0.103 µM)	0.5 mg/L (≈ 0.411 µM)	2 mg/L (≈ 1.64 µM)	139 ± 6.7 mg/L (≈ 114 µM)
CCCCCCC(=O)N[C@@H](CCN)C(=O)N[C@H](C(=O)N[C@@H](CN)C(=O)N[C@H]1CCNC(=O)[C@H]([C@@H](C)O)NC(=O)[C@H](CCN)NC(=O)[C@H](CCN)NC(=O)[C@H](CC(C)C)NC(=O)[C@@H](Cc2ccccc2)NC(=O)[C@H](CCN)NC1=O)[C@@H](C)O [Compound 39, Heptanoyl-Dab-Thr-Dap-ring(4-10)[Dab-Dab-D-Phe-Leu-Dab-Dab-Thr]] (Heptanoyl-[Dab]T[Dap][Dab][Dab][dF]L[Dab][Dab]T; lactam 4-C)	0.03 mg/L (≈ 0.0258 µM)	0.03 mg/L (≈ 0.0258 µM)	0.03 mg/L (≈ 0.0258 µM)	0.03 mg/L (≈ 0.0258 µM)	0.03 mg/L (≈ 0.0258 µM)	0.03 mg/L (≈ 0.0258 µM)	0.06 mg/L (≈ 0.0517 µM)	0.5 mg/L (≈ 0.431 µM)	357 ± 8.1 mg/L (≈ 307 µM)
CCCCCCCC(=O)N[C@@H](CCN)C(=O)N[C@H](C(=O)N[C@H](CO)C(=O)N[C@H]1CCNC(=O)[C@H]([C@@H](C)O)NC(=O)[C@H](CCN)NC(=O)[C@H](CN)NC(=O)[C@H]([C@@H](C)O)NC(=O)[C@@H](Cc2ccccc2)NC(=O)[C@H](CCN)NC1=O)[C@@H](C)O [Compound 73, Octanoyl-Dab-Thr-D-Ser-ring(4-10)[Dab-Dab-D-Phe-Thr-Dap-Dab-Thr]] (Octanoyl-[Dab]T[dS][Dab][Dab][dF]T[Dap][Dab]T; lactam 4-C)	0.06 mg/L (≈ 0.0522 µM)	≤0.03 mg/L	≤0.03 mg/L	≤0.03 mg/L	0.25 mg/L (≈ 0.217 µM)	0.5 mg/L (≈ 0.435 µM)	>64 mg/L	64 mg/L (≈ 55.6 µM)	> 500 mg/L
CCCCCCCC(=O)N[C@@H](CCN)C(=O)N[C@H](C(=O)N[C@H](CCN)C(=O)N[C@H]1CCNC(=O)[C@H]([C@@H](C)O)NC(=O)[C@H](CCN)NC(=O)[C@H](CCN)NC(=O)[C@H]([C@@H](C)O)NC(=O)[C@@H](Cc2ccccc2)NC(=O)[C@H](CCN)NC1=O)[C@@H](C)O [Compound 13, Octanoyl-Dab-Thr-D-Dab-ring(4-10)[Dab-Dab-D-Phe-Thr-Dab-Dab-Thr]] (Octanoyl-[Dab]T[dDab][Dab][Dab][dF]T[Dab][Dab]T; lactam 4-C)	≤0.03 mg/L	≤0.03 mg/L	≤0.03 mg/L	≤0.03 mg/L	0.06 mg/L (≈ 0.051 µM)	≤0.03 mg/L	1 mg/L (≈ 0.849 µM)	1 mg/L (≈ 0.849 µM)	> 500 mg/L
CC[C@H](C)CCCCC(=O)N[C@@H](CN)C(=O)N[C@H](C(=O)N[C@H](CCN)C(=O)N[C@H]1CCNC(=O)[C@H]([C@@H](C)O)NC(=O)[C@H](CCN)NC(=O)[C@H](CCN)NC(=O)[C@H](CC(C)C)NC(=O)[C@@H](CC(C)C)NC(=O)[C@H](CCN)NC1=O)[C@@H](C)O [Compound 96, (S)-6-methyloctanoyl-Dap-Thr-D-Dab-ring(4-10)[Dab-Dab-D-Leu-Leu-Dab-Dab-Thr]] (X1-[Dap]T[dDab][Dab][Dab][dL]L[Dab][Dab]T; lactam 4-C)	0.03 mg/L (≈ 0.026 µM)	0.03 mg/L (≈ 0.026 µM)	0.03 mg/L (≈ 0.026 µM)	0.03 mg/L (≈ 0.026 µM)	0.03 mg/L (≈ 0.026 µM)	0.03 mg/L (≈ 0.026 µM)	0.5 mg/L (≈ 0.433 µM)	0.5 mg/L (≈ 0.433 µM)	207 ± 13.2 mg/L (≈ 179 µM)
